Laboratory results: patent publication US10888576B2, “Composition of HMB and ATP and methods of use” (Metabolic Technologies, Inc., priority 2018, dated 2021)

Columns and labels:
[1] = after administration; cited from earlier work
urinary 3-MH:Cr ratio = assay: 24 h urinary 3-methylhistidine:creatinine ratio (muscle protein degradation); format: in vivo, human; conditions: Mean ± SEM
Description: Prior to the study, participants were randomly assigned to receive either 3 g per day of HMB Free Acid (HMB) (combined with food-grade orange flavors and sweeteners), 400 mg per day of ATP (PEAK ATP®; TSI, Inc.), a combination of both 3 g of HMB and 400 mg per day of ATP, or a placebo (food-grade orange flavors and sweeteners) divided equally into three servings daily with the first serving given 30 minutes prior to exercise and the remaining two servings daily with the mid-day and evening meals. On the non-training days participants were instructed to consume one serving with each of three separate meals. The supplementation was continued daily throughout the training and testing protocols. Each serving was formulated with 1 gram of HMB free acid to account for fill and emptying variation and achieve a minimum effective dosage of 0.800 grams. This dosage would be equivalent to a 1 gram Ca-HMB dosage.
Samples were thawed one time and analyzed in duplicate for each analyte. All blood draws were scheduled at the same time of day to negate confounding influences of diurnal hormonal variations. Serum total and free testosterone, cortisol, and C-reactive protein (CRP) were assayed via ELISA kits obtained from Diagnostic Systems Laboratories (Webster, Tex.). All hormones were measured in the same assay on the same day to avoid compounded interassay variance. […] Serum creatine kinase (CK) was measured using colorimetric procedures at 340 nm (Diagnostics Chemicals, Oxford, Conn.). Twenty-four hour urine collections were made and 3-methylhistine was determined by previously described methods (Rathmacher et al 1992 and Wilson et al, 2013).
The rate of muscle protein degradation was evaluated by measuring urinary 3-MH:Cr ratio (Table 6).

resistance-trained males [2] = assay: Vertical jump peak power on force platform; format: in vivo, human; conditions: for vertical jump power increase: over the 12-weeks of training; for decrease in vertical jump power during the overreaching cycle: over weeks 9 and 10
Description: Measurements of PP were also taken during a vertical jump (VJ) test performed on a multi-component AMTI force platform (Advanced Mechanical Technology, Inc., Watertown, Mass.), interfaced with a personal computer at a sampling rate of 1000 Hz (51). Data acquisition software (LabVIEW, version 7.1; National Instruments Corporation, Austin, Tex.) was used to calculate PP. Peak power was calculated as the peak combination of ground reaction force and peak velocity during the accelerated launch on the platform. The ICC of VJ power was 0.97. Prior to the study, participants were randomly assigned to receive either 3 g per day of HMB Free Acid (HMB) (combined with food-grade orange flavors and sweeteners), 400 mg per day of ATP (PEAK ATP®; TSI, Inc.), a combination of both 3 g of HMB and 400 mg per day of ATP, or a placebo (food-grade orange flavors and sweeteners) divided equally into three servings daily with the first serving given 30 minutes prior to exercise and the remaining two servings daily with the mid-day and evening meals. On the non-training days participants were instructed to consume one serving with each of three separate meals. The supplementation was continued daily throughout the training and testing protocols. […] This dosage would be equivalent to a 1 gram Ca-HMB dosage. All participants performed a high volume resistance training protocol during the 12-week study. The phases of the study and measurements taken are shown in FIG. 1, and the exercise protocols for each phase of the study are shown in Tables 1 to 3. The training was divided into 3 phases, with Phase 1 consisting of daily undulating periodization (weeks 1 to 8), Phase 2 consisting of the overreaching cycle (weeks 9 and 10), and Phase 3 consisting of the taper cycle (weeks 11 and 12).

resistance-trained males [3] = assay: Muscle strength: 1RM of back squat, bench press and deadlift (total strength); format: in vivo, human; conditions: for change in total strength during the overreaching cycle: from week 8 to week 10; for total strength gains: over the 12-week study, 1-RM of squat, bench press, deadlift
Description: After familiarization with procedures, muscle strength was assessed via 1RM testing of the back squat, bench press, and […]. Each lift was performed as described by the International Powerlifting Federation rules (44). Body composition (lean body mass, fat mass, and total mass) was determined by dual x-ray absorptiometry (DXA; Lunar Prodigy enCORE 2008, Madison, Wis., U.S.A.). Skeletal muscle hypertrophy was determined via the combined changes in ultrasonography-determined muscle thickness of the vastus lateralis (VL) and vastus intermedius (VI) muscles. The intraclass correlation coefficient (ICC) for the test-retest of muscle thickness measurements was r=0.97. Prior to the study, participants were randomly assigned to receive either 3 g per day of HMB Free Acid (HMB) (combined with food-grade orange flavors and sweeteners), 400 mg per day of ATP (PEAK ATP®; TSI, Inc.), a combination of both 3 g of HMB and 400 mg per day of ATP, or a placebo (food-grade orange flavors and sweeteners) divided equally into three servings daily with the first serving given 30 minutes prior to exercise and the remaining two servings daily with the mid-day and evening meals. On the non-training days participants were instructed to consume one serving with each of three separate meals. The supplementation was continued daily throughout the training and testing protocols. […] This dosage would be equivalent to a 1 gram Ca-HMB dosage. All participants performed a high volume resistance training protocol during the 12-week study. The phases of the study and measurements taken are shown in FIG. 1, and the exercise protocols for each phase of the study are shown in Tables 1 to 3. The training was divided into 3 phases, with Phase 1 consisting of daily undulating periodization (weeks 1 to 8), Phase 2 consisting of the overreaching cycle (weeks 9 and 10), and Phase 3 consisting of the taper cycle (weeks 11 and 12).

[4] = after HMB is fed; cited from earlier work
skeletal muscle = conditions: acute ingestion of 2.4 grams; cited from earlier work

Q: Which “plasma levels of HMB compared with calcium HMB” value [1] does the source give for CC(C)(O)CC(=O)O [HMB-FA, β-hydroxy-β-methylbutyric acid] here?
A: Its value is “approximately double the plasma levels of HMB”.

Q: What about the “time to plasma levels compared with calcium HMB” value [1] of the same molecule?
A: Its value is “about one-quarter the time”.

Q: And the “24 h 3MH:Cr” value (urinary 3-MH:Cr ratio; week 0 (baseline))?
A: Its value is 0.127 ± 0.004 μmol:mg.

Q: And the “24 h 3MH:Cr” value (urinary 3-MH:Cr ratio; week 1)?
A: Its value is 0.122 ± 0.002 μmol:mg.

Q: What about the “24 h 3MH:Cr” value (urinary 3-MH:Cr ratio; week 8) of the same molecule?
A: Its value is 0.124 ± 0.008 μmol:mg.

Q: And the “24 h 3MH:Cr” value (urinary 3-MH:Cr ratio; week 9 (overreaching))?
A: The value was 0.120 ± 0.003 μmol:mg.

Q: And the “24 h 3MH:Cr” value (urinary 3-MH:Cr ratio; week 10 (overreaching))?
A: Its value is 0.141 ± 0.004 μmol:mg.

Q: And the “vertical jump power increase” value (resistance-trained males [2])?
A: The value was 991±51 watts.

Q: What about the “decrease in vertical jump power during the overreaching cycle” value (resistance-trained males [2]) of the same molecule?
A: Its value is 1.4±0.4%.

Q: What about the “change in total strength during the overreaching cycle” value (resistance-trained males [3]) of the same molecule?
A: Its value is −0.5±1.2%.

Q: And the total strength gains (resistance-trained males [3])?
A: The total strength gains was 77.1 ± 5.6 kg.

Q: And the “loss of HMB to urine” value [4]?
A: Its value is 20-50%.

Q: What about the “change in protein breakdown” value (skeletal muscle) of the same molecule?
A: Its value is −56%.

Q: And the “change in skeletal muscle protein synthesis” value (skeletal muscle)?
A: The value was “+70%”.

Q: Which “24 h 3MH:Cr” value (urinary 3-MH:Cr ratio; week 0 (baseline)) does the source give for Nc1ncnc2c1ncn2[C@@H]1O[C@H](COP(=O)(O)OP(=O)(O)OP(=O)(O)O)[C@@H](O)[C@H]1O [ATP, Adenosine-5′-triphosphate] here?
A: The value was 0.136 ± 0.008 μmol:mg.

Q: And the “24 h 3MH:Cr” value (urinary 3-MH:Cr ratio; week 1)?
A: The value was 0.127 ± 0.007 μmol:mg.

Q: What about the “24 h 3MH:Cr” value (urinary 3-MH:Cr ratio; week 8) of the same molecule?
A: The value was 0.143 ± 0.007 μmol:mg.

Q: What about the “24 h 3MH:Cr” value (urinary 3-MH:Cr ratio; week 9 (overreaching)) of the same molecule?
A: Its value is 0.143 ± 0.008 μmol:mg.

Q: What about the “24 h 3MH:Cr” value (urinary 3-MH:Cr ratio; week 10 (overreaching)) of the same molecule?
A: The value was 0.131 ± 0.012 μmol:mg.

Q: And the “vertical jump power increase” value (resistance-trained males [2])?
A: Its value is 796±75 watts.

Q: And the “decrease in vertical jump power during the overreaching cycle” value (resistance-trained males [2])?
A: The value was 2.2±0.4%.

Q: What about the “change in total strength during the overreaching cycle” value (resistance-trained males [3]) of the same molecule?
A: Its value is −2.±0.5%.

Q: And the total strength gains (resistance-trained males [3])?
A: Its total strength gains is 55.3 ± 6.0 kg.
